# T1: GlyT1b (hGlyT1b; Flag-Glyt1b) (Homo sapiens, UniProt P48067)
# T1 sequence (P48067 15-652 isoform P48067-3): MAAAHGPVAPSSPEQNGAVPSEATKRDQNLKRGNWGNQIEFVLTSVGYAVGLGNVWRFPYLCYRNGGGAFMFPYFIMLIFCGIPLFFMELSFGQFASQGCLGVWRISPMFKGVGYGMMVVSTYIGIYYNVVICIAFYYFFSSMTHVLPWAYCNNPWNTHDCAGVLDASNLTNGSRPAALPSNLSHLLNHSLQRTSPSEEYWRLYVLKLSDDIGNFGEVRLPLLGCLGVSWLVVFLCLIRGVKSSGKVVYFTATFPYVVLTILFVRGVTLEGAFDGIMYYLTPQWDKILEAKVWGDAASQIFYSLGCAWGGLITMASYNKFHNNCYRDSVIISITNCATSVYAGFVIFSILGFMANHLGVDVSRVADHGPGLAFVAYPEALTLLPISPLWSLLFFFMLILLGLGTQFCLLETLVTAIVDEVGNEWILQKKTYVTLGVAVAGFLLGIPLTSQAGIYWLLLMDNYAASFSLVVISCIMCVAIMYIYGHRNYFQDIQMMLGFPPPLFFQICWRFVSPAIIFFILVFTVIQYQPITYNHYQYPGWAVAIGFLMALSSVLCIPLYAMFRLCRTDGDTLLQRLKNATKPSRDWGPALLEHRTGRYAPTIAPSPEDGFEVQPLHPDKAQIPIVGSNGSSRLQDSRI
# Tests used:
# [1] = target: T1, GlyT1b (hGlyT1b; Flag-Glyt1b); assay: displacement of […] [3H]CHIBA-3007, membrane filtration assay; assay type: binding; details: 150 mM NaCl, 10 mM HEPES pH 7.4, RT
# [2] = substrate: NCC(=O)O; assay: [3H]glycine uptake into transfected HEK MSR cells; assay type: cell-based, Homo sapiens; details: 0.05-200 µM glycine
KI [1] [µM],Molecule,Km [2] [µM]
330 ± 10,NCC(=O)O [glycine],–
–,GlyT1b (hGlyT1b; Flag-Glyt1b) (Homo sapiens) (protein) MAAAHGPVAPSSPEQNGAVPSEATKRDQNLKRGNWGNQIEFVLTSVGYAVGLGNVWRFPYLCYRNGGGAFMFPYFIMLIFCGIPLFFMELSFGQFASQGCLGVWRISPMFKGVGYGMMVVSTYIGIYYNVVICIAFYYFFSSMTHVLPWAYCNNPWNTHDCAGVLDASNLTNGSRPAALPSNLSHLLNHSLQRTSPSEEYWRLYVLKLSDDIGNFGEVRLPLLGCLGVSWLVVFLCLIRGVKSSGKVVYFTATFPYVVLTILFVRGVTLEGAFDGIMYYLTPQWDKILEAKVWGDAASQIFYSLGCAWGGLITMASYNKFHNNCYRDSVIISITNCATSVYAGFVIFSILGFMANHLGVDVSRVADHGPGLAFVAYPEALTLLPISPLWSLLFFFMLILLGLGTQFCLLETLVTAIVDEVGNEWILQKKTYVTLGVAVAGFLLGIPLTSQAGIYWLLLMDNYAASFSLVVISCIMCVAIMYIYGHRNYFQDIQMMLGFPPPLFFQICWRFVSPAIIFFILVFTVIQYQPITYNHYQYPGWAVAIGFLMALSSVLCIPLYAMFRLCRTDGDTLLQRLKNATKPSRDWGPALLEHRTGRYAPTIAPSPEDGFEVQPLHPDKAQIPIVGSNGSSRLQDSRI,35.2 ± 2.1
